Experimental data reported in US10688131B2, “Peptides and scaffolds for use in immunotherapy against head and neck squamous cell carcinoma and other cancers” (Immatics Biotechnologies GmbH, priority 2016, dated 2020).

Columns and labels:
CD8+ T cells = experiment: In vitro T-cell priming assay with aAPCs loaded with peptide/MHC complexes and anti-CD28 antibody, pMHC multimer readout; format: cell-based, human; settings: for Donors: percentage of positive donors; for Donors / Wells: HLA-A*02 healthy donors, three stimulation cycles; for Wells: percentage of positive wells; for Wells positive [%]: percentage of positive wells among evaluable, HLA-A*02 restricted peptides
Description: In order to obtain information regarding the immunogenicity of the TUMAPs of the present invention, the inventors performed investigations using an in vitro T-cell priming assay based on repeated stimulations of CD8+ T cells with artificial antigen presenting cells (aAPCs) loaded with peptide/MHC complexes and anti-CD28 antibody.
In order to perform in vitro stimulations by artificial antigen presenting cells loaded with peptide-MHC complex (pMHC) and anti-CD28 antibody, the inventors first isolated CD8+ T cells from fresh HLA-A*02 leukapheresis products via positive selection using CD8 microbeads (Miltenyi Biotech, Bergisch-Gladbach, Germany) of healthy donors obtained from the University clinics Mannheim, Germany, after informed consent.
PBMCs and isolated CD8+ lymphocytes were incubated in T-cell medium (TCM) until use consisting of RPMI-Glutamax (Invitrogen, Karlsruhe, Germany) supplemented with 10% heat inactivated human AB serum (PAN-Biotech, Aidenbach, Germany), 100 U/ml Penicillin/100 μg/ml Streptomycin (Cambrex, Cologne, Germany), 1 mM sodium pyruvate (CC Pro, Oberdorla, Germany), 20 μg/ml Gentamycin (Cambrex). 2.5 ng/ml IL-7 (PromoCell, Heidelberg, Germany) and 10 U/ml IL-2 (Novartis Pharma, Nürnberg, Germany) were also added to the TCM at this step.
Generation of pMHC/anti-CD28 coated beads, T-cell stimulations and readout was performed in a highly defined in vitro system using four different pMHC molecules per stimulation condition and 8 different pMHC molecules per readout condition.
The purified co-stimulatory mouse IgG2a anti human CD28 Ab 9.3 (Jung et al., 1987) was chemically biotinylated using Sulfo-N-hydroxysuccinimidobiotin as recommended by the manufacturer (Perbio, Bonn, Germany). Beads used were 5.6 μm diameter streptavidin coated polystyrene particles (Bangs Laboratories, Illinois, USA).
pMHC used for positive and negative control stimulations were A*0201/MLA-001 (peptide […] (SEQ ID NO. 157) from modified Melan-A/MART-1) and A*0201/DDX5-001 ([…] from DDX5, SEQ ID NO. 158), respectively.
800.000 beads/200 μl were coated in 96-well plates in the presence of 4×12.5 ng different biotin-pMHC, washed and 600 ng biotin anti-CD28 were added subsequently in a volume of 200 μl. Stimulations were initiated in 96-well plates by co-incubating 1×10^6 CD8+ T cells with 2×10^5 washed coated beads in 200 μl TCM supplemented with 5 ng/ml IL-12 (PromoCell) for 3 days at 37° C. Half of the medium was then exchanged by fresh TCM supplemented with 80 U/ml IL-2 and incubating was continued for 4 days at 37° C. This stimulation cycle was performed for a total of three times. For the pMHC multimer readout using 8 different pMHC molecules per condition, a two-dimensional combinatorial coding approach was used as previously described (Andersen et al., 2012) with minor modifications encompassing coupling to 5 different fluorochromes. Finally, multimeric analyses were performed by staining the cells with Live/dead near IR dye (Invitrogen, Karlsruhe, Germany), CD8-FITC antibody clone SK1 (BD, Heidelberg, Germany) and fluorescent pMHC multimers. For analysis, a BD LSRII SORP cytometer equipped with appropriate lasers and filters was used. Peptide specific cells were calculated as percentage of total CD8+ cells. Evaluation of multimeric analysis was done using the FlowJo software (Tree Star, Oregon, USA). In vitro priming of specific multimer+CD8+ lymphocytes was detected by comparing to negative control stimulations.
Exemplary flow cytometry results after TUMAP-specific multimer staining for 2 peptides of the invention are shown in FIGS. 3A and 3B together with corresponding negative controls. Additional exemplary flow cytometry results after TUMAP-specific multimer staining for 3 peptides of the invention are shown in FIGS. 4A-4C together with corresponding negative controls.

HLA-A*02:01 = HLA-A*02:01 (Homo sapiens, UniProt P04439, D140Y/D185E/D98H/E176V/E277Q/G131W/G231S/I119V/I121R/I166T/I218V/L300P/L318F/N151K/N90K/P208A/P217A/Q86G/Q94H/R138H/R169H/T345S); experiment: MHC binding assay: UV-ligand exchange with β2m ELISA; settings: binding of HLA-class I restricted peptides to HLA-A*02:01
Description: Candidate peptides for T cell based therapies according to the present invention were further tested for their MHC binding capacity (affinity). The individual peptide-MHC complexes were produced by UV-ligand exchange, where a UV-sensitive peptide is cleaved upon UV-irradiation, and exchanged with the peptide of interest as analyzed. Only peptide candidates that can effectively bind and stabilize the peptide-receptive MHC molecules prevent dissociation of the MHC complexes. To determine the yield of the exchange reaction, an ELISA was performed based on the detection of the light chain (β2m) of stabilized MHC complexes. The assay was performed as generally described in Rodenko et al. (Rodenko et al., 2006).
96 well MAXISorp plates (NUNC) were coated over night with 2 ug/ml streptavidin in PBS at room temperature, washed 4× and blocked for 1 h at 37° C. in 2% BSA containing blocking buffer. Refolded HLA-A*02:01/MLA-001 monomers served as standards, covering the range of 15-500 ng/ml. Peptide-MHC monomers of the UV-exchange reaction were diluted 100-fold in blocking buffer. Samples were incubated for 1 h at 37° C., washed four times, incubated with 2 ug/ml HRP conjugated anti-β2m for 1 h at 37° C., washed again and detected with TMB solution that is stopped with […]. Absorption was measured at 450 nm. Candidate peptides that show a high exchange yield (preferably higher than 50%, most preferred higher than 75%) are generally preferred for a generation and production of antibodies or fragments thereof, and/or T cell receptors or fragments thereof, as they show sufficient avidity to the MHC molecules and prevent dissociation of the MHC complexes.

Substance | Peptide exchange (MHC class I binding score, peptide exchange yield) (HLA-A*02:01) | Donors (CD8+ T cells) | Wells (CD8+ T cells) | Wells positive [%] (CD8+ T cells)
109 (KIQEILTQV; listed as Homo sapiens) [compound 109] |  | +++ (50%-69% = +++) | + (<20% = +) | 
135 (GLFSQHFNL; listed as Homo sapiens) [compound 135] |  | ++ (20%-49% = ++) | + (<20% = +) | 
13 (SLVSYLDKV; listed as Homo sapiens) [compound 13] | ++++ (>75% = ++++) |  |  | ++ (20%-49% = ++)
108 (SLYNLGGSKRISI; listed as Homo sapiens) [compound 108] |  | ++++ (>=70% = ++++) | + (<20% = +) | 
147 (ILMDPSPEYA; listed as Homo sapiens) [compound 147] |  | ++++ (>=70% = ++++) | +++ (50%-69% = +++) | 
28 (AVDPVSGSLYV; listed as Homo sapiens) [compound 28] | ++++ (>75% = ++++) |  |  | +++ (50%-69% = +++)
98 (SLYKGLLSV; listed as Homo sapiens) [compound 98] |  | ++++ (>=70% = ++++) | ++ (20%-49% = ++) | 
127 (SLFGKKYIL; listed as Homo sapiens) [compound 127] |  | ++++ (>=70% = ++++) | ++ (20%-49% = ++) | 
113 (NLMASQPQL; listed as Homo sapiens) [compound 113] |  | ++++ (>=70% = ++++) | +++ (50%-69% = +++) | 
105 (STYGGGLSV; listed as Homo sapiens) [compound 105] |  | ++++ (>=70% = ++++) | + (<20% = +) | 
123 (LLSGDLIFL; listed as Homo sapiens) [compound 123] |  | ++++ (>=70% = ++++) | ++ (20%-49% = ++) | 
101 (GLLPSAESIKL; listed as Homo sapiens) [compound 101] |  | ++++ (>=70% = ++++) | + (<20% = +) | 
10 (TLWPATPPKA; listed as Homo sapiens) [compound 10] | +++ (>50 = +++) |  |  | + (<20% = +)
18 (YLYPDLSRL; listed as Homo sapiens) [compound 18] | ++++ (>75% = ++++) |  |  | + (<20% = +)
150 (ILAEEPIYIRV; listed as Homo sapiens) [compound 150] |  | ++++ (>=70% = ++++) | +++ (50%-69% = +++) | 
12 (TLTDEINFL; listed as Homo sapiens) [compound 12] | ++++ (>75% = ++++) |  |  | + (<20% = +)
143 (YVYQNNIYL; listed as Homo sapiens) [compound 143] |  | ++ (20%-49% = ++) | + (<20% = +) | 
145 (LLYGKYVSV; listed as Homo sapiens) [compound 145] |  | ++++ (>=70% = ++++) | ++ (20%-49% = ++) | 
3 (SLYGLGGSKRISI; listed as Homo sapiens) [compound 3] | +++ (>50 = +++) |  |  | + (<20% = +)
114 (VLVPYEPPQV; listed as Homo sapiens) [compound 114] |  | ++++ (>=70% = ++++) | + (<20% = +) | 
8 (AQLNIGNVLPV; listed as Homo sapiens) [compound 8] | ++++ (>75% = ++++) |  |  | + (<20% = +)
137 (GLAPFLLNAV; listed as Homo sapiens) [compound 137] |  | ++++ (>=70% = ++++) | + (<20% = +) | 
118 (TLLQEQGTKTV; listed as Homo sapiens) [compound 118] |  | ++ (20%-49% = ++) | + (<20% = +) | 
4 (ILDINDNPPV; listed as Homo sapiens) [compound 4] | +++ (>50 = +++) |  |  | 
154 (KMWEELPEVV; listed as Homo sapiens) [compound 154] |  | ++++ (>=70% = ++++) | + (<20% = +) | 
21 (FLHEPFSSV; listed as Homo sapiens) [compound 21] | ++++ (>75% = ++++) |  |  | 

Further lines, with some results ahead:

Peptide exchange (MHC class I binding score, peptide exchange yield) (HLA-A*02:01) | Substance | Donors (CD8+ T cells) | Wells (CD8+ T cells) | Wells positive [%] (CD8+ T cells)
+++ (>50 = +++) | 30 (TLASLGYAVV; listed as Homo sapiens) [compound 30] |  |  | +++ (50%-69% = +++)
++++ (>75% = ++++) | 29 (RLLPDLDEV; listed as Homo sapiens) [compound 29] |  |  | ++ (20%-49% = ++)
++++ (>75% = ++++) | 66 (TLLSEIAEL; listed as Homo sapiens) [compound 66] |  |  | 
+++ (>50 = +++) | 39 (LLPEDDTRDNV; listed as Homo sapiens) [compound 39] |  |  | 
+++ (>50 = +++) | 86 (SLQERQVFL; listed as Homo sapiens) [compound 86] |  |  | 
+++ (>50 = +++) | 47 (QLLEGELETL; listed as Homo sapiens) [compound 47] |  |  | 
+++ (>50 = +++) | 78 (VLYGDVEEL; listed as Homo sapiens) [compound 78] |  |  | 
++++ (>75% = ++++) | 34 (ALDTFSVQV; listed as Homo sapiens) [compound 34] |  |  | 
++++ (>75% = ++++) | 45 (GLIEWLENTV; listed as Homo sapiens) [compound 45] |  |  | 
++++ (>75% = ++++) | 32 (IQDAEGAIHEV; listed as Homo sapiens) [compound 32] |  |  | 
++++ (>75% = ++++) | 57 (AILGFALSEA; listed as Homo sapiens) [compound 57] |  |  | 
+++ (>50 = +++) | 87 (ALPEPSPAA; listed as Homo sapiens) [compound 87] |  |  | 
